Assay results as given in PubChem BioAssay AID1963431 (Molecular Pharmacology Branch, DTP, NCI, 2024).

Test system: Rh18 complex spheroid viability, percent test/control
Experiment: Anticancer human tumor Rh18 cell line growth inhibition [Asc];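 further: spheroids exposed to compound for 7 days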;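 on viability, T/C: 100% = DMSO vehicle control wells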
Details: for IC50: curve of first compound; for viability, T/C: stronger effect = lower value
Protocol: Multicellular complex tumor spheroid response to apoptosis pathway targeting inhibitors Alrizomadlin, Pelcitoclax, and Dasminapant in combination with a variety of drugs and investigational agents in selected tumor cell lines
The MDM2 inhibitor alrizomadlin, the Bcl-2/Bcl-xL inhibitor pelcitoclax, and the IAPs inhibitor dasminapant were evaluated both individually and in combination with standard of care and investigational anticancer small molecules within a complex spheroid model of solid tumors. . Complex spheroids include a stromal component modeled by human endothelial cells (HUVEC) and fibroblasts modeled by human mesenchymal stem cells (MSCs). The concentration ranges selected for each drug and investigational agent were based upon clinically achievable concentrations if the clinical Cmax of the agent was known.
Compounds. The drugs and investigational agents: alrizomadlin (APG-115; NSC831270), pelcitoclax (APG-1252; NSC835773), dasminapant (APG-1387;NSC834197), TAK-243 (NSC785004), copanlisib (NSC809693), olaparib (NSC753686), talazoparib (NSC767125), cobimetinib (NSC 768068), eltanexor (KPT-8602, NSC 794443), abemaciclib (NSC 768073), sotorasib (NSC818433), adagrasib (NSC 831453), MRTX-1133 (NSC 836407), Iadademestat (ORY1001, NSC 806812), and RMC-4630 (NSC839698), were obtained from the NCI Developmental Therapeutics Program Chemical Repository. The FDA-approved anticancer drug set is available from the Developmental Therapeutics Program at https://dtp.cancer.gov/organization/dscb/obtaining/available plates.htm. […] The stock solutions were prepared in dimethyl sulfoxide (DMSO, Sigma-Aldrich, St. Louis, MO, cat. D2650) at 800-fold the tested concentration and stored at -70 degrees C prior to their use. All drugs and investigational agents were tested over a range starting from a high concentration at or near the clinical Cmax and decreasing in half-log increments. If the clinical Cmax for an agent had not been determined, the highest concentration tested was 10 microM.
The patient-derived cancer (PDC) cell lines include five colon adenocarcinomas: 186277-243-T-J2-PDC, 616215-338-R-J1-PDC, 439559-082-T-J2-PDC, 463943-066-T-J2-PDC, and 519858-162-T-J1-PDC; three pancreatic carcinomas: 323965-272-R-J2-PDC, 521955-158-R6-J3-PDC, and 521955-158-R2-J5-PDC; two uterine sarcomas: 327498-152-R-J2-PDC and 993429-296-R-J1-PDC; two rhabdomyosarcomas: 755483-174-R-J1-PDC and 772245-204-R-J1-PDC; two soft tissue sarcomas: 126254-015-R-J1-PDC and 494315-158-R-J1-PDC; two malignant fibrous histiocytomas: 317291-083-R-J1-PDC and 596521-263-R-J1-PDC; two breast carcinomas: 171881-019-R-J1-PDC and 885512-296-R-J2-PDC; and one ovarian carcinoma: 6556581-035-R-J-PDC were obtained from the NCI PDMR, (https://pdmr.cancer.gov). The established cell lines HSSY-2 synovial sarcoma (RRID:CVCL 8719), SYO-1 synovial sarcoma (RRID:CVCL_7146), MPNST malignant peripheral neural sheath tumor were obtained from the Sloan Kettering Institute. The following established cell lines were purchased from the American Type Culture Collection (ATCC, Manassas, VA), Sor the received from the NCI repository:, PANC-1 pancreatic carcinoma (CRL-1469, RRID:CVCL_0480), OVCAR-5 ovarian carcinoma (RRID:CVCL_1628), OVCAR-8 ovarian carcinoma (RRID:CVCL_1629), , MCF-7 breast carcinoma (CRL-12584, RRID:CVCL_0031), MDA-MB-231 breast carcinoma (CRL-12532, RRID:CVCL_0062), NCI-H1876 small cell lung carcinoma (CRL-5902, RRID:CVCL_1503), NCI-H510A small cell lung carcinoma (HTB-184, RRID:CVCL_1565), NCI-H1417 (CRL-5869, RRID:CVCL_1469), and NCI-H196 small cell lung carcinoma (CRL-5823, RRID:CVCL_1509). Dr. Peter Houghton (Greehey Children's Cancer Research Institute, University of Texas Health Science Center, San Antonio, TX) provided Rh-18 rhabdomyosarcoma (RRID:CVCL_1659). Pooled donor human umbilical vein endothelial cells (HUVEC, Lonza, cat. CC-2519) and human mesenchymal stem cells (hMSC, Lonza, cat. PT-2501) were purchased from Lonza (Walkersville, MD).
Cell Culture. […]

COc1c(OCCCN2CCOCC2)ccc2c3n(c(=NC(=O)c4cnc(N)nc4)nc12)CCN3 + CCN1C(C(=O)NC23CCC(C(=O)O)(CC2)CC3)C(c2cccc(Cl)c2F)C2(C(=O)Nc3cc(Cl)ccc32)C12CCCCC2
IC50 (second compound 0.03 µM): < 3.16 nM | IC50 (second compound 0.0949 µM): < 3.16 nM | IC50 (second compound 0.3 µM): < 3.16 nM | IC50 (second compound 0.949 µM): < 3.16 nM | IC50 (second compound 3 µM): < 3.16 nM | viability, T/C (second compound 0.03 µM, first compound 0.00316 µM): 36.4% | viability, T/C (second compound 0.03 µM, first compound 0.01 µM): 27.2% | viability, T/C (second compound 0.03 µM, first compound 0.0316 µM): 15.1% | viability, T/C (second compound 0.03 µM, first compound 0.1 µM): 6.81% | viability, T/C (second compound 0.03 µM, first compound 0.316 µM): 3.01% | viability, T/C (second compound 0.03 µM, first compound 1 µM): 0.78% | viability, T/C (second compound 0.0949 µM, first compound 0.00316 µM): 17.8% | viability, T/C (second compound 0.0949 µM, first compound 0.01 µM): 16.1% | viability, T/C (second compound 0.0949 µM, first compound 0.0316 µM): 9.67% | viability, T/C (second compound 0.0949 µM, first compound 0.1 µM): 4.3% | viability, T/C (second compound 0.0949 µM, first compound 0.316 µM): 1.95% | viability, T/C (second compound 0.0949 µM, first compound 1 µM): 0.74% | viability, T/C (second compound 0.3 µM, first compound 0.00316 µM): 11% | viability, T/C (second compound 0.3 µM, first compound 0.01 µM): 11% | viability, T/C (second compound 0.3 µM, first compound 0.0316 µM): 6.7% | viability, T/C (second compound 0.3 µM, first compound 0.1 µM): 3.81% | viability, T/C (second compound 0.3 µM, first compound 0.316 µM): 1.38% | viability, T/C (second compound 0.3 µM, first compound 1 µM): 0.96% | viability, T/C (second compound 0.949 µM, first compound 0.00316 µM): 10.3% | viability, T/C (second compound 0.949 µM, first compound 0.01 µM): 9.29% | viability, T/C (second compound 0.949 µM, first compound 0.0316 µM): 5.17% | viability, T/C (second compound 0.949 µM, first compound 0.1 µM): 2.9% | viability, T/C (second compound 0.949 µM, first compound 0.316 µM): 1.19% | viability, T/C (second compound 0.949 µM, first compound 1 µM): 0.83% | viability, T/C (second compound 3 µM, first compound 0.00316 µM): 10.2% | viability, T/C (second compound 3 µM, first compound 0.01 µM): 8.55% | viability, T/C (second compound 3 µM, first compound 0.0316 µM): 7.12% | viability, T/C (second compound 3 µM, first compound 0.1 µM): 3.01% | viability, T/C (second compound 3 µM, first compound 0.316 µM): 3.28% | viability, T/C (second compound 3 µM, first compound 1 µM): 1.16%

O=C(c1cc(Cc2n[nH]c(=O)c3ccccc23)ccc1F)N1CCN(C(=O)C2CC2)CC1 + CNC(C)C(=O)NC1CN(S(=O)(=O)c2cccc(S(=O)(=O)N3CCC4CCC(C(=O)NC(c5ccccc5)c5ccccc5)N4C(=O)C(NC(=O)C(C)NC)C3)c2)CCC2CCC(C(=O)NC(c3ccccc3)c3ccccc3)N2C1=O
IC50 (second compound 0.01 µM): 404 nM | IC50 (second compound 0.0316 µM): < 31.6 nM | IC50 (second compound 0.1 µM): < 31.6 nM | IC50 (second compound 0.316 µM): < 31.6 nM | IC50 (second compound 1 µM): < 31.6 nM | viability, T/C (second compound 0.01 µM, first compound 0.0316 µM): 60.7% | viability, T/C (second compound 0.01 µM, first compound 0.1 µM): 48.4% | viability, T/C (second compound 0.01 µM, first compound 0.316 µM): 49.6% | viability, T/C (second compound 0.01 µM, first compound 1 µM): 39.4% | viability, T/C (second compound 0.01 µM, first compound 3.16 µM): 13.2% | viability, T/C (second compound 0.01 µM, first compound 10 µM): 16.7% | viability, T/C (second compound 0.0316 µM, first compound 0.0316 µM): 45.8% | viability, T/C (second compound 0.0316 µM, first compound 0.1 µM): 49.9% | viability, T/C (second compound 0.0316 µM, first compound 0.316 µM): 46.4% | viability, T/C (second compound 0.0316 µM, first compound 1 µM): 34.5% | viability, T/C (second compound 0.0316 µM, first compound 3.16 µM): 16.7% | viability, T/C (second compound 0.0316 µM, first compound 10 µM): 18.1% | viability, T/C (second compound 0.1 µM, first compound 0.0316 µM): 42% | viability, T/C (second compound 0.1 µM, first compound 0.1 µM): 40.2% | viability, T/C (second compound 0.1 µM, first compound 0.316 µM): 26.7% | viability, T/C (second compound 0.1 µM, first compound 1 µM): 27.8% | viability, T/C (second compound 0.1 µM, first compound 3.16 µM): 11.1% | viability, T/C (second compound 0.1 µM, first compound 10 µM): 12.8% | viability, T/C (second compound 0.316 µM, first compound 0.0316 µM): 40% | viability, T/C (second compound 0.316 µM, first compound 0.1 µM): 38.9% | viability, T/C (second compound 0.316 µM, first compound 0.316 µM): 36.8% | viability, T/C (second compound 0.316 µM, first compound 1 µM): 26.6% | viability, T/C (second compound 0.316 µM, first compound 3.16 µM): 11.3% | viability, T/C (second compound 0.316 µM, first compound 10 µM): 12.2% | viability, T/C (second compound 1 µM, first compound 0.0316 µM): 32.2% | viability, T/C (second compound 1 µM, first compound 0.1 µM): 36.8% | viability, T/C (second compound 1 µM, first compound 0.316 µM): 32.5% | viability, T/C (second compound 1 µM, first compound 1 µM): 26.1% | viability, T/C (second compound 1 µM, first compound 3.16 µM): 10.8% | viability, T/C (second compound 1 µM, first compound 10 µM): 10.9%
